From publication PMC12627862, “Therapeutic targeting of endothelial calcium signaling accelerates the resolution of lung injury” (Signal Transduction and Targeted Therapy, 2025)
Starred links: 1 amine or outer side, 2 acyl side, 3 side chain; linkers in the order of their positions; H or OH if unused. Positions of bridges follow the written chain, without caps; N, C: chain ends. Non-standard residues stand in square brackets, D forms with d. Residues, ends and D or L forms follow the SMILES beside them. *: point of attachment. Leu(4,5-dehydro) = C=C(C)C[C@H](N)C(=O)O; Oic = O=C(O)[C@@H]1C[C@@H]2CCCC[C@@H]2N1; d(tBuAla) = CC(C)(C)C[C@@H](N)C(=O)O; R5 = C=CCCC[C@@](C)(N)C(=O)O; S5 = C=CCCC[C@](C)(N)C(=O)O; X1 = O=C(CC(O)CN[*:1])[*:2]; 4Amb = NCc1ccc(C(=O)O)cc1; X3 = NCC(O)CC(=O)*

Legend:
[1] = system: human primary microvascular lung endothelial cells (HLMVECs); assay: Peptide uptake in endothelial cells; type: cell-based; details: 5’6-FAM-labeled compounds, HLMVECs
Procedure: We next analyzed the cell-penetrating properties of the selected compounds, hereafter referred to as vascular therapeutics (VT). The rate of uptake of 5’6-FAM (fluorescein)-labeled compounds by human primary microvascular lung endothelial cells (HLMVECs) was determined via confocal fluorescence live-cell imaging. FAM-labeled Myr-EBIN[13] and fluorescein alone were used as positive and negative controls, respectively. The t½ uptake and maximal uptake were determined from changes in the integrated fluorescence intensity over a 30 min period (Fig. 2a and Supplementary Fig. 1a). […] Like Myr-EBIN, compounds VT-107, -108 and -109 presented the highest uptake rates of 92.5 ± 5.0%, 82.5 ± 2.8% and 94.7 ± 4.9%, respectively, whereas the linear compound VT-101 was taken up less efficiently, with an average uptake of 58.4 ± 2.7% (Fig. 2a). […] The t½ uptake, however, varied between the tested compounds (Fig. 2b). The stapled compounds presented the shortest t½ uptake, whereas the linear compounds presented the longest t½ (Fig. 2b).
Peptide uptake in endothelial cells. The rate of peptide uptake by primary human microvascular endothelial cells was measured using 5’6FAM (fluorescein)-labeled peptides and confocal fluorescence live-cell imaging, with fluorescein alone used as a negative control. Changes in intracellular fluorescence for each peptide were monitored over time, and saponin, a detergent, was added at the end of the experiment to induce full uptake of the tested peptides by endothelial cells. The fluorescence intensity inside the cells was tracked over time, and the half-time uptake (t1/2) and maximum uptake were calculated.

[2] = Stability of selected EB3 inhibitors in human blood plasma; type: in vitro ADME; details: human plasma, 37 °C, perchloric acid (60%) precipitation, LC-MS/MS, read-out: compound remaining in human plasma
Procedure: Supplementary Table 3. Stability of selected EB3 inhibitors in human blood plasma. The indicated inhibitors were incubated with human plasma at 37 °C and samples were taken at the indicated time points. Plasma proteins were precipitated with ice-cold perchloric acid (60%); the concentration of compounds was measured in supernatant using a liquid chromatography-tandem mass spectrometry (LC-MS/MS). See also Figures 1 and 2.

[3] = Lipophilicity of peptides, logP(oct/wat); type: physicochemical; details: shake-flask n-octanol/phosphate buffer, mutually saturated, shaken 1 hour at room temperature; read-out: Log P (Octanol/Water)
Procedure, shortened: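 Shake-flask partition between n-octanol and phosphate buffer, each phase pre-saturated with the other; peptides dissolved in buffer, partitioned at several octanol:water ratios, shaken 1 h at room temperature. After equilibration both phases assayed for peptide; logP = log(octanol/water concentration ratio).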

[4] = Stability at various storage conditions; type: physicochemical; details: phosphate-buffered sterile saline, 8 days, LC-MS/MS
Procedure: Stability assay of peptides in various storage conditions. Peptides were dissolved and stored in phosphate-buffered sterile saline at -20, 4, 37, and 60°C for 8 days. The amount of peptide remaining after the study was analyzed by LC-MS/MS.
Supplementary Table 5. Stability of selected compounds at various storage conditions. Preliminary accelerated storage stability at various temperature conditions for the selected inhibitors was tested in phosphate-buffered sterile saline at -20 °C, 4 °C, 37 °C and 60 °C for 8 days. See also Figures 1 and 2.

[5] = Aggregation / solubility at 1 mM; type: physicochemical; details: summary calls it solubility at 1mM
Procedure, shortened: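 Solubility and aggregation of compounds were assessed experimentally at 1 mM. Lipophilicity was determined as octanol/water partition coefficient, logP(oct/wat).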

[6] = molecular target: EB3 interactions with IP3R3-GFP (Homo sapiens, UniProt Q9UPY8); assay: Competitive binding: inhibition of EB3 interaction with IP3R3-GFP in vitro; type: biochemical; details: 250 nM
Sequence of EB3 interactions with IP3R3-GFP (Q9UPY8 whole entry): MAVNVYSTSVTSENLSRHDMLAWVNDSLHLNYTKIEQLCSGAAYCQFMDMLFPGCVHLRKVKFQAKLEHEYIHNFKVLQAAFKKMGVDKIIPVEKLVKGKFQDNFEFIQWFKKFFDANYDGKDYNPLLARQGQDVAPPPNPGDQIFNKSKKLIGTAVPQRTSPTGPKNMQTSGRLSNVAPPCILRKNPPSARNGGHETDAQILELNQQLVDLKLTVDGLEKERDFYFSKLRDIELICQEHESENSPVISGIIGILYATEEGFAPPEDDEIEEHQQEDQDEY
Description: We tested the efficacy of twenty-three compounds in inhibiting EB3 interactions with IP3R3-GFP via an in vitro approach developed by us[12],[13]. […] Guided by NMR studies, we predicted the binding pose of 109 to EB3 via AutoDock Vina[13],[24],[25].

C=C(C)C[C@@H]1NC(=O)[C@](C)(NC(=O)c2ccc(CNC(=O)CC(O)CN)cc2)CCC/C=C\CCC[C@@](C)(C(=O)N[C@H](CC(C)(C)C)C(=O)O)NC(=O)CC(O)CNC(=O)[C@@H]2C[C@@H]3CCCC[C@@H]3N2C1=O (stereo partly drawn) [compound 107, (2R)-2-((8S,17R,20S,22aS,26aS,27aS,Z)-17-(4-((4-amino-3-hydroxybutanamido)methyl)benzamido)-4-hydroxy-8,17-dimethyl-20-(2-methylallyl)-1,6,18,21-tetraoxo 2,3,4,5,6,7,8,9,10,11,14,15,16,17,18,19,20,21,22a,23,24,25,26,26a,27,27a-hexacosahydro-1H-[1,4,7,12]tetraazacyclotricosino[4,5-a]indole-8-carboxamido)-4,4-dimethylpentanoic acid] ({X3-4Amb}-[R5][Leu(4,5-dehydro)][Oic][X1][S5][d(tBuAla)]-OH; staple (Z) 1-5)
uptake, percentage of the maximal values obtained following saponin treatment ([1]; confocal live-cell imaging over 30 min, mean ± SEM, n = 16–45 cells per group): 92.5 ± 5.0% | half-time uptake t1/2 ([1]; confocal live-cell imaging, n = 3 independent experiments): 12.6 ± 24 s | penetration of the cell membrane ([1]; no cell internalization signal): able to penetrate the cell membrane without the addition of a cell internalization signal | remaining at 1.5 h ([2]; 1.5 hr): 87% | remaining at 20 h ([2]; 20 hr): 65% | logD [3]: 0.51 | amount of peptide remaining after storage ([4]; 4 °C): 88% | amount of peptide remaining after storage ([4]; 37 °C): 85% | amount of peptide remaining after storage ([4]; 60 °C): 85% | amount of peptide remaining after storage ([4]; -20 °C): 94% | Aggregation at 1mM [5]: weak signal | inhibition at 0.25 µM [6]: 65%
